Laboratory results: patent US7056498B2, “Composition containing aminophenol derivative, use thereof, and process for dissolving aminophenol derivative” (L'Oreal, priority 1999, dated 2006)

Key:
Assay type in all cases: physicochemical
[1] = Amount of aminophenol derivative dissolved in various solubilizing agents
Method: The amount of aminophenol derivative (N-ethyloxyearbonyl-4-para-aminophenol, or EPAP, and N-cholesteryloxyearbonyl-4-para-aminophenol, or CPAP) which can be dissolved in various solubilizing agents, at 60° C., was compared in Tables 1 and 2 below.

[2] = Storage stability of the compositions for two months (viscosity, colour, odour, HPLC content, crystals); settings: two months at room temperature and at 45° C.
Method: After storage for two months at room temperature and at 45° C., no change in the viscosity or colour of the composition and no release of odour were observed.

[3] = Amount of aminophenol derivative dissolved in various solubilizing agents; settings: in caprylic/capric triglycerides, at room temperature
[4] = in apricot kernel oil, at 60° C.
[5] = in mixture of oxyethylenated (26 EO) oxypropylenated (26 PO) butyl alcohol and oxyethylenated (40 EO) hydrogenated castor oil
[6] = in oxyethylenated (7 EO) hydrogenated castor oil, at 60° C.
[7] = in oxyethylenated (20 EO) oxypropylenated (5 PO) cetyl alcohol, at 60° C.
[8] = in oxyethylenated (20 EO) sorbitan monostearate, at 60° C.
[9] = in oxyethylenated (40 EO) hydrogenated castor oil, at 60° C.
[10] = in oxyethylenated (60 EO) hydrogenated castor oil, at 60° C.
[11] = in composition of Example 2 (fluid emulsion)
[12] = in composition of Example 3 (bleaching fluid)
[13] = in composition of Example 1 (fluid emulsion)

Amount dissolved ([1]; in Laureth-4, at 60° C.) | Amount dissolved [1, 4] | Amount dissolved ([1]; in hexyldecanol, at 60° C.) | Amount dissolved ([1]; in mineral oil, at 60° C.) | Amount dissolved [1, 5] | Amount dissolved ([1]; in octyldodecanol, at 60° C.) | Amount dissolved [1, 6] | Amount dissolved [1, 7] | Amount dissolved [1, 8] | Amount dissolved [1, 9] | Amount dissolved [1, 10] | Compound | also measured
4.8% | insoluble | insoluble | insoluble | 14.2% | 0.5% | 12.5% | 14.2% | 14.2% | 16.5% | 16.5% | CC(C)CCC[C@@H](C)[C@H]1CC[C@H]2[C@@H]3CC=C4C[C@@H](OC(=O)Nc5ccc(O)cc5)CC[C@]4(C)[C@H]3CC[C@]12C [CPAP, N-cholesteryloxycarbonyl-4-para-aminophenol] | Amount dissolved ([1]; in Laureth-23, at 60° C.): 4.8%; Amount dissolved ([1]; in caprylic/capric triglycerides, at 60° C.): 0.5%; Decrease in compound content, as determined by HPLC [2, 11]: no decrease; Formation of crystals of the compound [2, 11]: no formation of crystals; Decrease in compound content, as determined by HPLC [2, 12]: no decrease; Formation of crystals of the compound [2, 12]: no formation of crystals
25% | insoluble | insoluble | insoluble | 20% | insoluble | 16.6% | 16.5% | 50% | 16.5% | 16.5% | CCOC(=O)Nc1ccc(O)cc1 [EPAP, N-ethyloxycarbonyl-4-para-aminophenol] | Amount dissolved ([1]; in caprylic/capric triglycerides, 80° C.): 4.7% (80° C.);; Amount dissolved ([1]; in mixture of oxyethylenated (9 EO) tridecyl alcohol and oxyethylenated (40 EO) hydrogenated castor oil): 25%; Recrystallization after dissolution [3]: recrystallizes; Decrease in compound content, as determined by HPLC [2, 13]: no decrease; Formation of crystals of the compound [2, 13]: no formation of crystals
